In PMC6222614, “Disubstituted 4-Chloro-3-nitrophenylthiourea Derivatives: Antimicrobial and Cytotoxic Studies” (Molecules : A Journal of Synthetic Chemistry and Natural …, 2018):
Like-named read-outs stand apart in the source and are kept apart here.

Assays:
HIV-1 IIIB = test: Anti-HIV-1 activity: protection of MT-4 cells from virus-induced cytopathogenicity (MTT); type: cell-based, Human Immunodeficiency Virus type-1; details: 50% protection of MT-4 cells from HIV-1 induced cytopathogenicity, MTT, 4-day incubation; read-out: HIV-1IIIB EC50
How it was run: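 MT-4 cells (1 × 10^4/well) infected with HIV-1 IIIB at m.o.i. 0.01 (100 CCID50) in presence of serial compound dilutions. Protection from virus-induced cytopathogenicity measured by MTT viability after 4 days at 37 °C.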

MT-4 cells = test: Cytotoxicity against mock-infected MT-4 cells (MTT); type: cell-based, human; details: concentration reducing viability of mock-infected MT-4 cells by 50%, 96 h
How it was run: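 Uninfected MT-4 cells (HTLV-1-transformed human CD4+ T cells) seeded at 1 × 10^5 cells/mL in RPMI-1640 with 10% FBS and grown with serially diluted compounds at 37 °C, 5% CO2. Viability read by MTT after 96 h.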

SK-MEL-28 = test: Antiproliferative assay (MTT); type: cell-based, human; details: skin melanoma, concentration reducing cell proliferation by 50%, 96 h
Experimental: (§1) Cell lines derived from human solid tumors were: Skin melanoma (SK-MEL-28); prostate carcinoma (DU-145). Normal tissues foreskin fibroblasts (CRL-7065) were also used. Cells were seeded at 1 × 10^5 cells/mL in 96 well plates in specific media supplemented with 10% FCS and antibiotics, as above. Cell cultures were then incubated at 37 °C in a humidified, 5% CO2 atmosphere in the absence or presence of serial dilutions of test compounds. Cell viability was determined after 96 h at 37 °C by the MTT method.

DU145 = test: Antiproliferative assay (MTT); type: cell-based, human; details: prostate carcinoma, concentration reducing cell proliferation by 50%, 96 h
Experimental: as §1

CRL7065 = test: Antiproliferative assay (MTT), normal cell line; type: cell-based, human; details: normal foreskin fibroblasts, concentration reducing cell proliferation by 50%, 96 h
Experimental: as §1

MT-4 = test: Antiproliferative assay (MTT); type: cell-based, human; details: concentration reducing cell proliferation by 50%, 96 h, mean of three determinations
Experimental: (§2) Cell lines derived from human hematological tumors were: CD4+ human T-cells containing an integrated HTLV-1 genome (MT-4); CD4+ human acute T-lymphoblastic leukemia (CCRF-CEM); human splenic B-lymphoblastoid cells (WIL-2NS); human acute B-lymphoblastic leukemia (CCRF-SB). Cells were seeded at an initial density of 1 × 10^5 cells/mL in 96 well plates in RPMI-1640 medium supplemented with 10% fetal calf serum (FCS), 100 units/mL penicillin G and 100 μg/mL streptomycin.
as §1

WIL-2NS = test: Antiproliferative assay (MTT); type: cell-based, human; details: concentration reducing cell proliferation by 50%, 96 h, mean of three determinations
Experimental: as §2, §1

CCRF-SB = test: Antiproliferative assay (MTT); type: cell-based, human; details: concentration reducing cell proliferation by 50%, 96 h, mean of three determinations
Experimental: as §2, §1

CCRF-CEM = test: Antiproliferative assay (MTT); type: cell-based, human; details: concentration reducing cell proliferation by 50%, 96 h, mean of three determinations
Experimental: as §2, §1

HaCaT cells [1] = test: Lactate dehydrogenase (LDH) release assay in HaCaT cells; type: cell-based; details: 24 h
Experimental: Cells were passaged using trypsin-EDTA (Gibco Life Technologies, Carlsbad, CA, USA) and cultured in 24-well plates (2.5 × 10^4 cells per well). Experiments were conducted in DMEM with 2% FBS.
Release of lactate dehydrogenase (LDH) from the cytosol to culture medium is a marker of cell death. The assay was performed after 24 h incubation of HaCaT cells in 24-well plates with investigated concentrations of each compound. The activity of LDH released from the cytosol of damaged cells to the supernatant was measured using the protocol of the cytotoxicity detection kit LDH test described by the manufacturer (Roche Diagnostics, Berlin, Germany). Absorbance was measured at 490 nm using a microplate reader (using Epoch microplate reader, BioTek Inc., Winooski, VT, USA) equipped with Gen5 software (BioTech Instruments, Inc., Biokom, Janki, Polska)
Compounds mediated cytotoxicity expressed as the LDH release (%) was determined by the following equation: [(A test sample—A low control)/(A high control—A low control)] × 100% (A-absorbance); where “low control” were cells in DMEM with 2% FBS without tested compounds, and “high control” were cells incubated in DMEM with 2% FBS with 10% Triton X-100 (100% LDH release).

HaCaT cells [2] = test: Proliferation rate in cultures of HaCaT cells (trypan blue counting); type: cell-based, human; details: lowest concentrations (8 µM for 11 and 13, 37 µM for 25), 48 h
Experimental: (§3) Human immortal keratinocyte cell line from adult human skin (HaCaT) was purchased from American Type Culture Collection (Rockville, MD, USA), and cultured in Dulbecco’s Modified Eagle’s Medium (DMEM), supplemented with antibiotics (penicillin and streptomycin), 10% heat-inactivated FBS-fetal bovine serum (Gibco Life Technologies, Carlsbad, CA, USA) at 37 °C and 5% CO2 atmosphere. Cells were passaged using trypsin-EDTA (Gibco Life Technologies, Carlsbad, CA, USA) and cultured in 24-well plates (2.5 × 10^4 cells per well). Experiments were conducted in DMEM with 2% FBS.
After 48 h incubation with the lowest concentration of the tested compound the increased number of viable cells were assessed by direct counting of cells using trypan blue with a Countess Automated Cell Counter (Invitrogen, Carlsbad, CA, USA). The results are presented as a % of viable and dead cells versus control.

HaCaT cells [3] = test: Cell viability in HaCaT cells (MTT mitochondrial reduction); type: cell-based, human
Experimental: as §3
The cell viability assay was assessed by the determination of MTT salt (3-(4,5-dimethylthiazol-2-yl)-2,5-diphenyltetrazolium bromide, Sigma-Aldrich Chemie, Buchs, Germany) conversion by mitochondrial dehydrogenase. […] Absorbance of solubilized formazan was measured spectrophotometrically at 570 nm (using Epoch microplate reader, BioTek Inc., Winooski, VT, USA, equipped with Gen5 software (BioTech Instruments, Inc., Biokom, Janki, Polska).
Cell viability was presented as a percent of MTT in the treated cells versus the control (cells incubated in serum-free DMEM without extracts). The relative MTT level (%) was calculated as [A]/[B] × 100, where [A] is the absorbance of the test sample and [B] is the absorbance of the control sample containing the untreated cells. […]

| SMILES | EC50 (HIV-1 IIIB) [µM] | CC50 (MT-4 cells) [µM] | CC50 (SK-MEL-28) [µM] | CC50 (DU145) [µM] | CC50 (CRL7065) [µM] | CC50 (MT-4) [µM] | CC50 (WIL-2NS) [µM] | CC50 (CCRF-SB) [µM] | CC50 (CCRF-CEM) [µM] | cell mortality (LDH release) increased to (HaCaT cells [1]) [%] | LD10 (concentration at which 10% of cells were dead) (HaCaT cells [1]; LDH assay) [µM] | inhibition of viable cell proliferation (HaCaT cells [2]) | cytotoxicity (MTT) (HaCaT cells [3]) [%] | release of LDH (HaCaT cells [1]; concentrations 8 and 16 µM) [%] | cytotoxicity (MTT) (HaCaT cells [3]; HaCaT, 24 h, moderate according to ISO 10993-5) [%] | cytotoxicity as compared to the LD10 value (HaCaT cells [1]; all applied concentrations (37 µM and higher)) [fold] |
| --- | --- | --- | --- | --- | --- | --- | --- | --- | --- | --- | --- | --- | --- | --- | --- | --- |
| O=[N+]([O-])c1cc(NC(=S)Nc2ccc(Cl)c(Cl)c2)ccc1Cl [Compound 11] | > 7.9 | 7.9 | 8.5 | 6 | 16 | 7.9 | 9.9 | 8.6 | 8 | 20 | 8 | ~65% | – | – | – | – |
| Cc1ccc(NC(=S)Nc2ccc(Cl)c([N+](=O)[O-])c2)cc1Cl [Compound 13] | > 8 | 8 | 6 | 7 | 16 | 8 | 7.6 | 6.7 | 4 | 30 | – | 30–40% | 50 | ~10 | – | – |
| O=[N+]([O-])c1cc(NC(=S)NCc2ccccc2)ccc1Cl [Compound 25] | > 36.7 | 36.7 | – | – | – | – | – | – | – | – | – | 30–40% | – | – | 50 | 7 |
